Each compound was assayed against T1, KCNQ2/3 channels (Homo sapiens, UniProt O43525+O43526) (assay: Fluorescence assay using a voltage-sensitive dye). Conditions: 10 μmol test substance; CHO-K1 cells expressing KCNQ2/3 channels; agonistic activity; read-out: % Stimulation [10 μmol] Average.
T1 construct: expressed in transfected cells; host or cells: CHO-K1
Format: cell-based
Method: Fluorescence Assay Using a Voltage-Sensitive Dye
Human CHO-K1 cells expressing KCNQ2/3 channels are cultivated adherently at 37° C., 5% CO2 and 95% humidity in cell culture bottles (e.g. 80 cm^2 TC flasks, Nunc) with MEM Alpha Medium (1×, liquid, Invitrogen, #22571), 10% foetal calf serum (FCS) (Invitrogen, #10270-106, heat-inactivated) and the necessary selection antibiotics. Before being spread out for the measurements, the cells are washed with a 1×DPBS buffer without Ca^2+/Mg^2+ (e.g. Invitrogen, #14190-094) and detached from the bottom of the culture vessel by means of Accutase (PAA Laboratories, #L11-007) (incubation with Accutase for 15 min at 37° C.). The cell count then present is determined using a CASY™ cell counter (TCC model, Schärfe System) in order subsequently to apply 20,000 cells/well/100 μl of the described nutrient medium to 96-well measuring plates of the Corning™ CellBIND™ type (flat clear-bottom black polystyrene microplates, #3340). Incubation is then carried out for one hour at room temperature, without gassing or adjusting the humidity, followed by incubation for 24 hours at 37° C., 5% CO2 and 95% humidity.
The voltage-sensitive fluorescent dye from the Membrane Potential Assay Kit (Red bulk format part R8123 for FLIPR, Molecular Devices™) is prepared by dissolving the contents of a vessel of Membrane Potential Assay Kit Red Component A in 200 ml of extracellular buffer (ES buffer, 120 mM NaCl, 1 mM KCl, 10 mM HEPES, 2 mM CaCl2, 2 mM MgCl2, 10 mM glucose; pH 7.4). After removal of the nutrient medium, the cells are washed with 200 μl of ES buffer, then covered with a layer of 100 μl of the dye solution prepared above and incubated for 45 min at room temperature with exclusion of light.
The fluorescence measurements are carried out with a BMG Labtech FLUOstar™ or BMG Labtech POLARstar™ instrument (525 nm excitation, 560 nm emission, bottom-read mode). After incubation of the dye, 50 μl of the substances to be tested in the desired concentrations, or 50 μl of ES buffer for control purposes, are introduced into separate cavities of the measuring plate and incubated for 30 min at room temperature whilst being shielded from light. The fluorescence intensity of the dye is then measured for 5 min and the fluorescence value F1 of each well is thus determined at a given, constant time. 15 μl of a […] KCl solution ([…]) are then added to each well. The change in fluorescence is subsequently measured until all relevant measured values have been obtained (mainly 5-30 min). At a given time after KCl application, a fluorescence value F2 is determined, in this case at the time of the fluorescence peak.
For calculation, the fluorescence intensity F2 is compared with the fluorescence intensity F1, and the agonistic activity of the target compound on the potassium channel is determined therefrom. F2 and F1 are calculated as follows:
[formula] In order to determine whether a substance has an agonistic activity,
[formula] for example, can be compared with
[formula] of control cells.
[formula] is determined by adding to the reaction batch only the buffer solution instead of the substance to be tested, determining the value F1K of the fluorescence intensity, adding the potassium ions as described above and measuring a value F2K of the fluorescence intensity. Then F2K and F1K are calculated as follows:
[formula] A substance has an agonistic activity on the potassium channel when
[formula] is greater than
[formula] Independently of the comparison of
[formula] it is also possible to conclude that a target compound has an agonistic activity if an increase in
[formula] is to be observed as the dosage of the target compound increases. Calculations of EC50 and IC50 values are carried out with the aid of Prism 4 software (GraphPad Software™).

| SMILES | activation at 10 µM [%] |
| --- | --- |
| O=C(c1cn2c(n1)CCC(c1cc(C(F)(F)F)cc(C(F)(F)F)c1)C2)N1CCCC1 (centres unmarked) [Compound 30, (6-(3,5-Bis(trifluoromethyl)phenyl)-5,6,7,8-tetrahydroimidazo[1,2-a]pyridin-2-yl)(pyrrolidin-1-yl)methanone] | 20.9 |
| O=C(c1cn2c(n1)CCC(c1cccc(C(F)(F)F)c1)C2)N1CCN(c2ccccc2F)CC1 (centres unmarked) [Compound 32, (4-(2-Fluorophenyl)piperazin-1-yl)(6-(3-(trifluoromethyl)phenyl)-5,6,7,8-tetrahydroimidazo[1,2-a]pyridin-2-yl)methanone] | 21.2 |
| Cc1ccccc1C1CCc2nc(C(=O)N3CCN(c4cccc(C(F)(F)F)c4)CC3)cn2C1 (centres unmarked) [Compound 35, (6-o-Tolyl-5,6,7,8-tetrahydroimidazo[1,2-a]pyridin-2-yl)(4-(3-(trifluoromethyl)-phenyl)piperazin-1-yl)methanone] | 20.9 |
| CC1(C)CC2CC(C)(CN2C(=O)c2cn3c(n2)CCC(c2ccc(F)cc2)C3)C1 (centres unmarked) [Compound 38, (6-(4-Fluorophenyl)-5,6,7,8-tetrahydroimidazo[1,2-a]pyridin-2-yl)(1,3,3-trimethyl-6-azabicyclo[3.2.1]octan-6-yl)methanone] | 25.9 |
| COc1ccc(C2CCc3nc(C(=O)NCc4cccc(C(F)(F)F)c4)cn3C2)cc1 (centres unmarked) [Compound 39, 6-(4-Methoxyphenyl)-N-(3-(trifluoromethyl)benzyl)-5,6,7,8-tetrahydroimidazo[1,2-a]pyridine-2-carboxamide] | 17.8 |
| CCc1ccc(C2CCc3nc(C(=O)NCCc4ccccc4)cn3C2)cc1 (centres unmarked) [Compound 40, 6-(4-Ethylphenyl)-N-phenethyl-5,6,7,8-tetrahydroimidazo[1,2-a]pyridine-2-carboxamide] | 16.6 |
| O=C(c1cn2c(n1)CCC(c1ccc(F)cc1)C2)N1CCC(Cc2ccccc2)CC1 (centres unmarked) [Compound 41, (4-Benzylpiperidin-1-yl)(6-(4-fluorophenyl)-5,6,7,8-tetrahydroimidazo[1,2-a]pyridin-2-yl)methanone] | 29.4 |
| O=C(NCc1ccc2c(c1)OCO2)c1cn2c(n1)CCC(c1cc(C(F)(F)F)cc(C(F)(F)F)c1)C2 (centres unmarked) [Compound 42, N-(Benzo[d][1,3]dioxol-5-ylmethyl)-6-(3,5-bis(trifluoromethyl)phenyl)-5,6,7,8-tetrahydroimidazo[1,2-a]pyridine-2-carboxamide] | 18.1 |
| O=C(NCc1ccccc1)c1cn2c(n1)CCC(c1cc(C(F)(F)F)cc(C(F)(F)F)c1)C2 (centres unmarked) [Compound 43, N-Benzyl-6-(3,5-bis(trifluoromethyl)phenyl)-5,6,7,8-tetrahydroimidazo[1,2-a]pyridine-2-carboxamide] | 16.3 |
| O=C(c1cn2c(n1)CCC(c1ccc(F)cc1)C2)N1CCN(c2cccc(C(F)(F)F)c2)CC1 (centres unmarked) [Compound 47, (6-(4-Fluorophenyl)-5,6,7,8-tetrahydroimidazo[1,2-a]pyridin-2-yl)(4-(3-(trifluoromethyl)phenyl)piperazin-1-yl)methanone] | 63.5 |
| O=C(c1cn2c(n1)CCC(c1cccc(F)c1)C2)N1CCN(c2cccc(C(F)(F)F)c2)CC1 (centres unmarked) [Compound 48, (6-(3-Fluorophenyl)-5,6,7,8-tetrahydroimidazo[1,2-a]pyridin-2-yl)(4-(3-(trifluoromethyl)phenyl)piperazin-1-yl)methanone] | 33 |
| COc1c(C)cc(C2CCc3nc(C(=O)NCc4ccc(F)cc4)cn3C2)cc1C (centres unmarked) [Compound 49, N-(4-Fluorobenzyl)-6-(4-methoxy-3,5-dimethylphenyl)-5,6,7,8-tetrahydroimidazo-[1,2-a]pyridine-2-carboxamide] | 15.1 |
| CC(CCc1ccccc1)NC(=O)c1cn2c(n1)CCC(c1cccc(F)c1)C2 (centres unmarked) [Compound 51, 6-(3-Fluorophenyl)-N-(4-phenylbutan-2-yl)-5,6,7,8-tetrahydroimidazo[1,2-a]pyridine-2-carboxamide] | 16.2 |
| CCc1ccc(C2CCc3nc(C(=O)NC(C)CCc4ccccc4)cn3C2)cc1 (centres unmarked) [Compound 52, 6-(4-Ethylphenyl)-N-(4-phenylbutan-2-yl)-5,6,7,8-tetrahydroimidazo[1,2-a]pyridine-2-carboxamide] | 34.2 |

Further lines, results first:

| activation at 10 µM [%] | SMILES |
| --- | --- |
| 26.2 | Cc1cccc(C2CCc3nc(C(=O)N4CCCC4)cn3C2)c1 (centres unmarked) [Compound 29, Pyrrolidin-1-yl(6-m-tolyl-5,6,7,8-tetrahydroimidazo[1,2-a]pyridin-2-yl)methanone] |
| 17.6 | O=C(c1cn2c(n1)CCC(c1cccc(C(F)(F)F)c1)C2)N1CCCC1 (centres unmarked) [Compound 31, Pyrrolidin-1-yl(6-(3-(trifluoromethyl)phenyl)-5,6,7,8-tetrahydroimidazo[1,2-a]pyridin-2-yl)methanone] |
| 24.5 | COc1ccc(C2CCc3nc(C(=O)N4CCCC4)cn3C2)c(OC)c1 (centres unmarked) [Compound 33, (6-(2,4-Dimethoxyphenyl)-5,6,7,8-tetrahydroimidazo[1,2-a]pyridin-2-yl)(pyrrolidin-1-yl)methanone] |
| 32.2 | Cc1ccccc1C1CCc2nc(C(=O)N3CCCC3)cn2C1 (centres unmarked) [Compound 34, Pyrrolidin-1-yl(6-o-tolyl-5,6,7,8-tetrahydroimidazo[1,2-a]pyridin-2-yl)methanone] |
| 21.7 | O=C(c1cn2c(n1)CCC(c1cc(F)ccc1F)C2)N1CCCC1 (centres unmarked) [Compound 36, (6-(2,5-Difluorophenyl)-5,6,7,8-tetrahydroimidazo[1,2-a]pyridin-2-yl)(pyrrolidin-1-yl)methanone] |
| 15.5 | CCc1ccc(C2CCc3nc(C(=O)N4CCCC4)cn3C2)cc1 (centres unmarked) [Compound 37, (6-(4-Ethylphenyl)-5,6,7,8-tetrahydroimidazo[1,2-a]pyridin-2-yl)(pyrrolidin-1-yl)methanone] |
| 27.5 | COc1ccc(N2CCN(C(=O)c3cn4c(n3)CCC(c3cc(C)c(OC)c(C)c3)C4)CC2)cc1 (centres unmarked) [Compound 44, (6-(4-Methoxy-3,5-dimethylphenyl)-5,6,7,8-tetrahydroimidazo[1,2-a]pyridin-2-yl)(4-(4-methoxyphenyl)piperazin-1-yl)methanone] |
| 25.7 | COc1cccc(C2CCc3nc(C(=O)N4CCC(Cc5ccccc5)CC4)cn3C2)c1 (centres unmarked) [Compound 50, (4-Benzylpiperidin-1-yl)(6-(3-methoxyphenyl)-5,6,7,8-tetrahydroimidazo[1,2-a]pyridin-2-yl)methanone] |

Same assay, conditions: CHO-K1 cells expressing KCNQ2/3 channels; agonistic activity

| SMILES | EC50 [µM] |
| --- | --- |
| COc1ccc(CCNC(=O)c2cn3c(n2)CCC(c2ccc(Oc4ccccc4)cc2)C3)cc1OC (centres unmarked) [Compound 27, N-(3,4-Dimethoxyphenethyl)-6-(4-phenoxyphenyl)-5,6,7,8-tetrahydroimidazo[1,2-a]pyridine-2-carboxamide] | 6.35 |
| CCCCCNC(=O)c1cn2c(n1)CCC(c1ccc(Oc3ccccc3)cc1)C2 (centres unmarked) [Compound 28, N-Pentyl-6-(4-phenoxyphenyl)-5,6,7,8-tetrahydroimidazo[1,2-a]pyridine-2-carboxamide] | 9.38 |
| CCOc1ccccc1N1CCN(C(=O)c2cn3c(n2)CCC(c2cccc(C)c2)C3)CC1 (centres unmarked) [Compound 45, (4-(2-Ethoxyphenyl)piperazin-1-yl)(6-m-tolyl-5,6,7,8-tetrahydroimidazo[1,2-a]pyridin-2-yl)methanone] | 7.98 |
| COc1ccc(C2CCc3nc(C(=O)N4CCN(c5cccc(C(F)(F)F)c5)CC4)cn3C2)c(OC)c1 (centres unmarked) [Compound 46, (6-(2,4-Dimethoxyphenyl)-5,6,7,8-tetrahydroimidazo[1,2-a]pyridin-2-yl)(4-(3-(trifluoromethyl)phenyl)piperazin-1-yl)methanone] | 3.98 |
